Experimental findings from ChEMBL document CHEMBL1125236 (J Med Chem, 1991) are described below.

As a reminder, the IC50 is the concentration needed to halve the response being measured. Low values mean inhibition by little substance, high ones a need for much substance. As a reminder, the T/C is the ratio of treated to control.

Assay [1] has as its system L1210. The experiment in a line: Compound was evaluated for the growth inhibition of L1210 cells. The assay is classed as functional, cell-based. The settings on record: Mus musculus.
A short description of assay [2]: Compound was evaluated for growth inhibition of WI-L2 cells. The settings on record: Homo sapiens, WIL2. Format: functional, cell-based.
For another assay, the target named is T1, Dihydrofolate reductase (Homo sapiens, UniProt P00374).
T1 sequence (P00374 whole entry): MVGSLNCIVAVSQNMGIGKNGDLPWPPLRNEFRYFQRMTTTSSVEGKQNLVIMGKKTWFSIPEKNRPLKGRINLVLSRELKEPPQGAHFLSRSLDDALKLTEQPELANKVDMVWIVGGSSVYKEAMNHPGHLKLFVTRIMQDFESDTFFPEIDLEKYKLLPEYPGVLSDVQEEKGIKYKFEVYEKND

The subject of assay [3] is L1210. The experiment in a line: Antitumor activity (T/C) evaluated against L1210 leukemia from the median survival time of treated mice (T) over that of control mice (C) at a dose of 4 mg/kg. Format: functional, Mus musculus.
The subject of assay [4] is L1210. The experiment in a line: Antitumor activity (T/C) evaluated against L1210 leukemia from the median survival time of treated mice (T) over that of control mice (C) at a dose of […] as experiment 1. Format: functional, Mus musculus.
Assay [5] concerns L1210. The experiment in a line: Antitumor activity (T/C) evaluated against L1210 leukemia from the median survival time of treated mice (T) over that of control mice (C) at a dose of 1 mg/kg. Format: functional, Mus musculus.
In assay [6] the test system is L1210. The experiment in a line: Antitumor activity (T/C) evaluated against L1210 leukemia from the median survival time of treated mice (T) over that of control mice (C) at a dose of 0.75 mg/kg as experiment 3.

Several values for one entry are separate records, joined by “and”; a condition that tells them apart may be missing. Equal entries are not always repeated.

Description for Dihydrofolate reductase: Inhibition of dihydrofolate reductase (DHFR) from human cells (WI-L2/M4).

`Nc1nc(N)c2nc(CNc3ccc(C(=O)NC(CCC(=O)Nc4cccc(C(=O)O)c4)C(=O)O)cc3)cnc2n1` (stereo not drawn): the IC50 in the assay on L1210 [1] came to 25 nM; in assay [2], 6.1 nM; against Dihydrofolate reductase, 32 nM.

Turning to `Nc1nc(N)c2nc(CNc3ccc(C(=O)N[C@@H](CCC(=O)O)C(=O)O)cc3)cnc2n1` [AMINOPTERIN], in assay [2], the midpoint of inhibition, the IC50, lay at 7.1 nM.

As to `CN(Cc1cnc2nc(N)nc(N)c2n1)c1ccc(C(=O)N[C@@H](CCC(=O)O)C(=O)O)cc1` [METHOTREXATE], the T/C in the assay with L1210 [3] was 175% and 188% and 200%; in the assay with L1210 [4] it was 213%; with L1210 [5], 188%; with L1210 [6] it was 175%.
